According to patent US10639287B2, “Compounds for the treatment of mitochondrial diseases” (UNIVERSITE PARIS-SUD, priority 2014, dated 2020):

What was measured:
[1] = test system: yeast cells expressing the wild-type MIP1 gene or the mutated mip1^G651S gene; experiment: Respiration (O2 consumption) of yeast cells, HANSATECH electrode; assay type: cell-based, Saccharomyces cerevisiae; settings: 32 μM vs DMSO
Method: The respiration rate is the amount of oxygen consumed per unit of time and biological material. It reflects the activity of the oxidative metabolism of the cells.
Oxygen consumption was measured on whole cells using a HANSATECH electrode. The yeast cells expressing the wild-type MIP1 gene or the mutated mip1^G651S gene were cultured for 7-8 generations in a YPE medium (1% Yeast Extract, 0.5% Bacto Peptone, 2% Ethanol) supplemented with DMSO or 32 μM clofilium tosylate at 28° C. with stirring. A volume corresponding to a total of 60 units of DO600 of each culture was centrifuged for 5 min at 3000 g. The pellet was resuspended in YPE in order to have 6.10^5 cells/μl. 50 μL, that is to say 3.10^7 cells, were introduced into the measuring chamber of the HANSATECH electrode, which was maintained at 28° C. The O2 consumption was observed and recorded in real time. The O2 consumption rate was calculated from the linear part of the O2 consumption curve.

[2] = test system: control fibroblasts and fibroblasts from a patient with a mutation on each allele of the POLG gene; experiment: Maximum non-toxic concentration on fibroblast cultures (xCELLigence cell index); assay type: cell-based, human; settings: 140 h, 2.5-10 μM tested
Method: Skin fibroblasts from the control and from the patient were cultured in DMEM Galactose (DMEM free of glucose (Life Technologies) supplemented with 10 mM galactose, 10% foetal bovine serum, 200 U/mL penicillin, 200 U/mL streptomycin). Uridine (50 μg/mL) and sodium pyruvate (2.5 mM) were added to the culture medium to maintain the cells expressing a deficiency of the respiratory chain. The cells were incubated in a controlled atmosphere at 37° C. and 5% CO2.
Cell growth of patient and control fibroblasts was measured continuously for 140 h by use of an xCELLigence apparatus (ACEA Biosciences) in 96-well plates. The background noise of the signal was measured with 50 μL of culture medium per well. 50 μL of medium containing 1350 fibroblasts were then added to each well. The impedance measurement was taken every minute for 9 h and then every 15 minutes until the end of analysis.
Clofilium tosylate was diluted in 0.1% DMSO and used at different concentrations (2.5 μM, 5 μM, 10 μM) in a total volume of 50 μL. Toxic concentrations of clofilium tosylate were determined by adding the drug from the point of cell seeding. For each drug concentration and each control, the analysis was carried out in triplicate on 96-well plates. A mathematical algorithm was used to convert the impedance signal into cell index (CI). […]

[3] = test system: homozygous TB2143 nematodes (polg-1(ok1548Δ/Δ)); experiment: Gonad and/or intestinal extrusion (premature death) of homozygous nematodes; assay type: in vivo, Caenorhabditis elegans; settings: 50 μM, until 7th day of adulthood
Method: Ten homozygous TB2143 larvae (polg-1(ok1548Δ/Δ)) at stage L4 were deposited on each NGM dish containing either DMSO or 50 μM clofilium tosylate (three dishes for each treatment group) and incubated at 20° C. Their survival was monitored until the 7th day of adulthood. The number of dead animals, not responding to any stimulation, and having intestinal and/or gonad extrusion was counted. The few animals that died of dehydration at the edge of the petri dishes were excluded from the analysis.

[4] = Maximum solubility in yeast culture; assay type: physicochemical; settings: 28 °C; in YPD yeast culture; read-out: maximum concentration (maximum solubility)
Method: From o/n pre-culture in selective medium (SC-URA, 2% ethanol (v/v)), 50 mL of rich YPD medium (1% Yeast Extract, 0.5% Bacto Peptone, 2% Glucose) were seeded at a DO600 of 0.05/mL. The 50 mL of culture were distributed in a series of ten tubes on the basis of 2 mL of culture/tube, with 4 mL of culture being placed in the last tube. […] From this tube (tube 1), 2 mL of culture were placed into tube 2. Tube 2 contained 4 ml of culture and clofilium tosylate at a concentration of 256 μM. 2 mL of tube 2 were added to tube 3, and so on. Each tube contained the drug at a concentration equal to half that of the previous tube. Two controls were provided—without clofilium tosylate and with DMSO (the volume being the same as that used to dilute the clofilium tosylate). The cultures were incubated at 28° C. with stirring for 24 hours, and the optical density (DO600) was measured.

[5] = test system: mutated mip1 yeast strains; experiment: Production of small colonies in mutated mip1 yeast strains; assay type: cell-based, Saccharomyces cerevisiae
Method: The rate of small cells in a population represents the cells not breathing due to rearrangements of the mtDNA and/or having lost their mtDNA.
From a pre-culture in selective medium (SC-TRP, 2% ethanol (v/v)) of the mutated mip1 strain, 2.10^5 cells/mL were seeded in 2 mL of rich YPD medium (1% Yeast Extract, 0.5% Bacto Peptone, 2% Glucose) in the presence of 32 μM clofilium tosylate or DMSO. The cells were then incubated at 28° C. for two cycles of 24 hours. The cells were then diluted to have about 200 to 250 cells per dish and spread on differential synthetic medium (SC-TRP, 0.3% glucose, 2% ethanol). The number of small colonies was calculated after 6 days of incubation at 28° C. (Baruffini, E., Lodi, T., Dallabona, C., Puglisi, A., Zeviani, M. and Ferrero, I. (2006) Genetic and Chemical rescue of the Saccharomyces cerevisiae phenotype induced by mitochondrial DNA polymerase mutations associated with progressive external ophthalmoplegia in humans. Hum. Mol. Genet., 15, 2846-2855).
The effect of the clofilium tosylate on the production of small colonies was measured in 8 recessive mip1 mutants:
an in 3 dominant mip1 mutants: • Y757C (mutated domain: polymerase) • K749R (mutated domain: polymerase) • E698G (mutated domain: polymerase)

[6] = test system: mitochondrial proteins POLG, TFAM and ATP5B; experiment: Amount of POLG, TFAM and ATP5B proteins in fibroblasts (western blot), cell growth conditions; assay type: cell-based, human; settings: 0.5 μM or 1.0 μM, control and patient fibroblasts
Method: Protein fractions of total extracts of control fibroblasts and of fibroblasts from a patient with a mutation on each allele of the POLG gene cultured in the presence of 0.1% DMSO or with 0.5 μM or 1.0 μM clofilium tosylate were analysed by electrophoresis.
Skin fibroblasts from the control and from the patient were cultured to 100% confluence in a complete Dulbecco's Modified Eagle Medium (DMEM) high glucose medium (4.5 g/L D-glucose, 110 mg/L sodium pyruvate, 10% foetal bovine serum, 1% penicillin/streptomycin from the stock solution containing 10,000 I.U. penicillin and 10,000 μg/mL streptomycin) at 37° C. under 5% CO2. At confluence, the cultures were trypsinised and placed in culture at 30% confluence in a complete DMEM high glucose medium supplemented with either 0.1% DMSO or with 0.5 μM or 1.0 μM clofilium tosylate. The cells were then incubated at 37° C. under 5% CO2 and harvested at 100% confluence. After trypsinisation, the total proteins of the fibroblasts were extracted and analysed by western blot. The proteins studied were the POLG protein (subjected to SDS/PAGE gel analysis (6%)), the mitochondrial proteins ATP5B and TFAM, and the cytosolic protein TUB3A as batch control.

With CCCCCCC[N+](CC)(CC)CCCCc1ccc(Cl)cc1.Cc1ccc(S(=O)(=O)[O-])cc1 [clofilium tosylate] the “respiration of yeast cells (O2 consumption)” value [1] was “breathed better”, the “maximum approved (non-toxic) concentration” value [2] was 2.5 µM and the “premature death by gonad and/or intestinal extrusion” value [3] was “reduced”. For the same molecule, the solubility [4] was 512 µM, the “production of small colonies of the mutant mip1^G651S yeast strain” value ([5]; 32 μM vs DMSO) was “reduced the production of small colonies” and the “production of cells not breathing (small colonies) in recessive and dominant mip1 mutants” value ([5]; 32 μM, irrespective of mutated MIP1 domain, except mutations producing more than 90% of small colonies) was “reduced the production of cells not breathing”. For the same molecule, the “amount of mitochondrial proteins POLG, TFAM and ATP5B” value [6] was “increased”.
